The text below walks through data of PubChem BioAssay (NCI).

Test systems include MCF7 breast; CAKI-1 renal; TK-10 renal; HS 578T breast; SF-539 CNS; SK-MEL-28 melanoma; MDA-MB-231 breast; K-562 leukemia; SF-295 CNS; CCRF-CEM leukemia.
Assay in all cases: NCI-60 cell line screen, 48 h

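In this assay, cells in 96-well plates receive the compound at five concentrations for 48 hours. Endpoints are linearly interpolated between the surrounding concentrations. The concentration for 50% growth inhibition is given as GI50. TGI: concentration producing complete growth inhibition.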

In the case of `Cc1cc2nc3c(C#N)c(C)c(CCCl)c(Cl)n3c2cc1C`, the TGI is 8.64 µM in the experiment on MCF7 breast; 9.43 µM in the experiment with CAKI-1 renal; 4.24 µM in the experiment on TK-10 renal; > 29.6 µM in the experiment on HS 578T breast; 5.09 µM in the experiment with SF-539 CNS; 15.5 µM in the experiment on SK-MEL-28 melanoma. For the same molecule, the TGI in the experiment with MDA-MB-231 breast stood at 3.66 µM; in the experiment with K-562 leukemia, 6.63 µM; in the experiment on SF-295 CNS it was 13.8 µM; with CCRF-CEM leukemia it was 7.38 µM.
For `Nc1nc2cc(Cl)ccc2n1N`, the TGI in the experiment on MCF7 breast, with CAKI-1 renal, in the experiment with TK-10 renal, with HS 578T breast, in the experiment on SF-539 CNS and in the experiment with SK-MEL-28 melanoma was > 100 µM in each case. Further, the TGI with MDA-MB-231 breast, in the experiment with K-562 leukemia, with SF-295 CNS and with CCRF-CEM leukemia was > 100 µM throughout.
On to `CCC(=O)NC1=C(Cl)C(=O)C(NC(=O)CC)=C(Cl)C1=O`, for which the GI50 in the experiment with MCF7 breast is 9.51 µM; in the experiment on CAKI-1 renal, 5.98 µM; in the experiment on TK-10 renal it was 6.91 µM; with HS 578T breast, 26.6 µM; in the experiment on SF-539 CNS it was > 44.4 µM; in the experiment on SK-MEL-28 melanoma it was 10.5 µM. Besides, the GI50 is 16.9 µM with MDA-MB-231 breast, 11.8 µM in the experiment with K-562 leukemia, > 39.2 µM in the experiment on SF-295 CNS and 3.04 µM with CCRF-CEM leukemia. Moreover, the TGI with MCF7 breast is 28.3 µM; in the experiment with CAKI-1 renal, 10.8 µM; in the experiment on TK-10 renal it was 15.4 µM; in the experiment on HS 578T breast, 69.7 µM; with SF-539 CNS, > 58.2 µM; in the experiment on SK-MEL-28 melanoma, 23.2 µM. The TGI was 31.2 µM in the experiment on MDA-MB-231 breast, > 27.9 µM with K-562 leukemia, > 53.8 µM with SF-295 CNS and > 21.6 µM in the experiment on CCRF-CEM leukemia.
Take `Cc1ccc(NC(=O)COc2ccc(Cl)cc2)cc1Cl`: the TGI in the experiment on MCF7 breast is > 100 µM; in the experiment with CAKI-1 renal, 81.9 µM; in the experiment on TK-10 renal, > 100 µM; with HS 578T breast, > 100 µM; with SF-539 CNS, > 100 µM; in the experiment on SK-MEL-28 melanoma, > 100 µM. The TGI was 59.7 µM in the experiment on MDA-MB-231 breast, > 100 µM with K-562 leukemia, > 100 µM in the experiment with SF-295 CNS and 85.9 µM with CCRF-CEM leukemia.
`O=C(Nc1cccc([N+](=O)[O-])c1)c1cccc(C(=O)Nc2cccc([N+](=O)[O-])c2)c1`: the GI50 was > 100 µM with MCF7 breast; > 100 µM in the experiment on CAKI-1 renal; 9.71 µM in the experiment on TK-10 renal; 7.5 µM in the experiment with HS 578T breast; 27.8 µM in the experiment on SF-539 CNS; > 100 µM in the experiment on SK-MEL-28 melanoma. In addition, the GI50 with MDA-MB-231 breast was 12.1 µM; with K-562 leukemia it was > 100 µM; with SF-295 CNS it was 23.2 µM; in the experiment on CCRF-CEM leukemia it was > 100 µM. Besides, the TGI is > 100 µM in the experiment on MCF7 breast; > 100 µM in the experiment on CAKI-1 renal; > 61.3 µM in the experiment on TK-10 renal; > 30.7 µM in the experiment on HS 578T breast; > 100 µM with SF-539 CNS; > 100 µM in the experiment with SK-MEL-28 melanoma. In addition, the TGI in the experiment on MDA-MB-231 breast was > 100 µM; with K-562 leukemia it was > 100 µM; in the experiment on SF-295 CNS, > 90.4 µM; with CCRF-CEM leukemia, > 100 µM.
Take `O=C1/C=C/[C@@H](O)[C@@H]2C[C@@H](O)C[C@H]2/C=C/CCC[C@H](CCO)O1`: the GI50 in the experiment on MCF7 breast is 0.188 µM; in the experiment with CAKI-1 renal it was 0.324 µM; with TK-10 renal it was 0.245 µM; in the experiment on HS 578T breast, 0.0519 µM; in the experiment on SF-539 CNS it was 0.469 µM; in the experiment on SK-MEL-28 melanoma, 0.0466 µM. Moreover, the GI50 with MDA-MB-231 breast is 0.182 µM; in the experiment on K-562 leukemia, 0.365 µM; in the experiment with SF-295 CNS it was 0.29 µM; in the experiment on CCRF-CEM leukemia, 0.362 µM. Also, the TGI in the experiment with MCF7 breast was 0.558 µM; in the experiment on CAKI-1 renal, 3.43 µM; in the experiment on TK-10 renal it was 0.832 µM; in the experiment on HS 578T breast it was > 100 µM; in the experiment with SF-539 CNS, > 100 µM; with SK-MEL-28 melanoma, 0.56 µM. Further, the TGI in the experiment on MDA-MB-231 breast was 0.391 µM; in the experiment with K-562 leukemia, > 100 µM; in the experiment with SF-295 CNS it was > 100 µM; with CCRF-CEM leukemia it was > 100 µM.
For the molecule `O=[N+]([O-])c1ccc2c(c1)C(N1CCN(CCO)CC1)Cc1ccc(F)cc1S2` (stereo not given), the TGI is 28.8 µM in the experiment with MCF7 breast; 26.3 µM in the experiment on CAKI-1 renal; 27.8 µM with TK-10 renal; 26.1 µM in the experiment with HS 578T breast; 22.6 µM in the experiment with SF-539 CNS; 6.06 µM with SK-MEL-28 melanoma. Moreover, the TGI is 28.2 µM with MDA-MB-231 breast, 12.6 µM in the experiment with K-562 leukemia, 14.1 µM in the experiment with SF-295 CNS and 16.1 µM in the experiment on CCRF-CEM leukemia.
On to `CN1CCN(Cc2ccc(NC(=O)c3cncc(C#Cc4ccc(N)nc4)c3)cc2C(F)(F)F)CC1`, for which the GI50 was 1.23 µM in the experiment on MCF7 breast; 0.312 µM in the experiment with CAKI-1 renal; 1.63 µM in the experiment on TK-10 renal; 0.486 µM in the experiment with HS 578T breast; 0.501 µM in the experiment with SF-539 CNS; 1.47 µM in the experiment with SK-MEL-28 melanoma. Besides, the GI50 was 0.634 µM in the experiment on MDA-MB-231 breast, 0.005 µM in the experiment on K-562 leukemia, 1.23 µM with SF-295 CNS and 1.46 µM in the experiment on CCRF-CEM leukemia. Besides, the TGI in the experiment on MCF7 breast was 7.22 µM; in the experiment on CAKI-1 renal, 2.09 µM; in the experiment with TK-10 renal, 9.54 µM; in the experiment on HS 578T breast, 2.16 µM; in the experiment with SF-539 CNS, 1.66 µM; in the experiment on SK-MEL-28 melanoma it was 5.54 µM. Besides, the TGI in the experiment on MDA-MB-231 breast worked out at 1.71 µM; in the experiment with K-562 leukemia, 5.54 µM; in the experiment with SF-295 CNS it was 4.79 µM; with CCRF-CEM leukemia it was 11.8 µM.
Take `Cc1ccc2ccccc2c1CSc1nc(N)nc2c1ncn2CC(C)C`: the TGI in the experiment on MCF7 breast is > 63.9 µM; with CAKI-1 renal, > 48.9 µM; with TK-10 renal it was > 100 µM; in the experiment on HS 578T breast, > 100 µM; in the experiment with SF-539 CNS it was > 44.8 µM; in the experiment on SK-MEL-28 melanoma, > 100 µM. Also, the TGI is > 100 µM in the experiment on MDA-MB-231 breast, > 100 µM in the experiment with K-562 leukemia, > 100 µM in the experiment on SF-295 CNS and > 95.5 µM in the experiment with CCRF-CEM leukemia.
